Experimental data taken from US7868204B2, “Inhibitors of histone deacetylase” (MethylGene Inc., priority 2001, dated 2011).
Like-named read-outs stand apart in the source and are kept apart here.

Key:
[1] = target: T1, cloned recombinant human HDAC-1 (Homo sapiens, UniProt Q13547); test: Human HDAC-1 enzyme inhibition, Assay 1 ([3H]-acetylated histone substrate, scintillation counting); format: biochemical
T1 construct: made in house; host or cells: Baculovirus insect cell expression system
Outline: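 Activity read as [3H]-acetic acid liberated from labeled substrate, ethyl acetate-extracted and scintillation-counted. Compounds preincubated 30 min at 4° C. with baculovirus-expressed, purified human HDAC-1. Dose-response curves give IC50 as concentration producing fifty percent of maximal inhibition.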

HCT116 cells = test: MTT assay; format: cell-based; conditions: Homo sapiens, HCT116 cells, 72 hours
Outline: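 Read-out: MTT (0.5 mg/ml final, 4 h) after solubilization in 50% DMF/20% SDS, pH 4.7, with OD translated into cell number via the line's growth curve. Compound treatment lasted 72 h at 37 °C in 5% CO2, starting a day after plating.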

[2] = tested on: acetylated histone H-4 in T24 human bladder cancer cells; test: Histone H4 acetylation in whole cells by immunoblots; format: cell-based; conditions: 16 h
Description: T24 human bladder cancer cells growing in culture were incubated with HDAC inhibitors for 16 h. […] of total histone protein was loaded onto SDS/PAGE and transferred to nitrocellulose membranes. Membranes were probed with polyclonal antibodies specific for acetylated histone H-4 (Upstate Biotech Inc.), followed by horse radish peroxidase conjugated secondary antibodies (Sigma). Enhanced Chemiluminescence (ECL) (Amersham) detection was performed using Kodak films (Eastman Kodak). Acetylated H-4 signal was quantified by densitometry.

[3] = Table 5F, read-out: Human HDAC-1 IC50
[4] = T-24, Table 5F, read-out: H4 Ac (T24) EC50
[5] = Table 5a, read-out: Human HDAC-1 IC50
[6] = T-24, Table 5a, read-out: H4Ac (T24) EC50
[7] = T-24, Table 5d, read-out: H4Ac(T24) EC50
[8] = T-24, Table 5E, read-out: H4 Ac (T24) EC50
[9] = T-24, Table 5c, read-out: H4Ac (T24) EC50

T1 sequence (Q13547 whole entry): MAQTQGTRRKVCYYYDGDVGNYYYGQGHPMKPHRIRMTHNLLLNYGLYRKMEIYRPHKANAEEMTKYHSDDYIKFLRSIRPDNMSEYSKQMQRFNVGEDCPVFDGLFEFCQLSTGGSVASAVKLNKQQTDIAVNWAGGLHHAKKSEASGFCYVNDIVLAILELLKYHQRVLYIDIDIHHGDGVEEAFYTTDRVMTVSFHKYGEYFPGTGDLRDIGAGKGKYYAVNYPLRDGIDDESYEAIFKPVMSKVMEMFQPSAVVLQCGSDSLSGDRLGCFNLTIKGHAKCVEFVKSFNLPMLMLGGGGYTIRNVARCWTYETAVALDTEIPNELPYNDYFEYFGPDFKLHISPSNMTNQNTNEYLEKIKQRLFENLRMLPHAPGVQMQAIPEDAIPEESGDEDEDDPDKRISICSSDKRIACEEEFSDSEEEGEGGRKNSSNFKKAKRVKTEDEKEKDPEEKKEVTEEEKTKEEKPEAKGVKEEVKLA

| SMILES | IC50 [1, 3] | IC50 (HCT116 cells; HCT-116, 72 h, Table 5F) | EC50 [2, 4] | further results |
| --- | --- | --- | --- | --- |
| COc1ccccc1NCc1ccc(C(=O)Nc2ccccc2N)cc1 [Cpd 429, N-(2-Amino-phenyl)-4-[(2-methoxy-phenylamino)-methyl]-benzamide] | 4 µM | 0.9 µM | 1 µM | – |
| Cn1c(=O)c2cc(NCc3ccc(C(=O)Nc4ccccc4N)cc3)ccc2n(C)c1=O [Cpd 461, N-(2-Amino-phenyl)-4-[(1,3-dimethyl-2,4-dioxo-1,2,3,4-tetrahydro-quinazolin-6-ylamino)-methyl]-benzamide] | 1.4 µM | 0.3 µM | 1 µM | – |
| COc1cccc(NCc2ccc(C(=O)Nc3ccccc3N)cc2)n1 [Cpd 390, N-(2-Amino-phenyl)-4-[(6-methoxy-pyridin-2-ylamino)-methyl]-benzamide] | 2 µM | 0.8 µM | 5 µM | – |
| Nc1ccccc1NC(=O)c1ccc(COc2ccc3ccccc3n2)cc1 [Cpd 396, N-(2-Amino-phenyl)-4-(quinolin-2-yloxymethyl)-benzamide] | 2 µM | 0.7 µM | 5 µM | – |
| Nc1nc(NCc2ccc(C(=O)Nc3ccccc3N)cc2)nc(NC2CCc3ccccc32)n1 (centres unmarked) [Cpd 10, 4-{[4-amino-6-(1-indanyl-amino)-[1,3,5]-triazin-2-ylamino]-methyl}-N-(2-amino-phenyl)-benzamide] | – | – | – | IC50 [1, 5]: 2 µM; IC50 (HCT116 cells; HCT-116, 72 h, Table 5a): 0.6 µM; EC50 [2, 6]: 1 µM |
| Cc1nc2ccc(Br)cc2c(=O)n1Cc1ccc(C(=O)Nc2ccccc2N)cc1 [Cpd 342, N-(2-Amino-phenyl)-4-(6-bromo-2-methyl-4-oxo-4H-quinazolin-3-ylmethyl)-benzamide] | 3 µM | 0.4 µM | 1 µM | – |
| CSc1cccc(NCc2ccc(C(=O)Nc3ccccc3N)cc2)c1 [Cpd 438, N-(2-Amino-phenyl)-4-[(3-methylsulfanyl-phenylamino)-methyl]-benzamide] | 5 µM | 0.6 µM | 1 µM | – |
| COc1cc(NCc2ccc(/C=C/C(=O)Nc3cscc3N)cc2)cc(OC)c1OC [Cpd 570] | – | – | – | IC50 ([1]; Table 5d, read-out: HDAC-1 IC50): 6 µM; IC50 (HCT116 cells; HCT-116, Table 5d): 0.6 µM; EC50 [2, 7]: 2 µM |
| COc1ccc(NCc2ccc(C(=O)Nc3ccccc3N)cc2)c(OC)n1 [Cpd 388, N-(2-Amino-phenyl)-4-[(2,6-dimethoxy-pyridin-3-ylamino)-methyl]-benzamide] | 3 µM | 0.4 µM | 5 µM | – |
| Nc1ccccc1NC(=O)c1ccc(-c2cccc(CNCc3ccccn3)c2)cc1 [Cpd 187] | 2 µM | 5 µM | 2 µM | – |
| Nc1ccccc1NC(=O)c1ccc(CNc2nc(NCc3ccccc3)nc(NC3Cc4ccccc4C3)n2)cc1 [Cpd 25] | – | – | – | IC50 [1, 5]: 0.8 µM; IC50 (HCT116 cells; HCT-116, 72 h, Table 5a): 0.3 µM; EC50 [2, 6]: 5 µM |
| COc1cc(CNc2ccc(C(=O)Nc3ccccc3N)cn2)cc(OC)c1OC [Cpd 176] | – | – | – | IC50 (HCT116 cells; HCT-116, 72 h, Table 5E): 1 µM; EC50 [2, 8]: 3 µM |
| Nc1ccccc1NC(=O)c1ccc(CNc2nc3cc(Cl)ccc3o2)cc1 [Cpd 320, N-(2-Amino-phenyl)-4-[(5-chloro-benzooxazol-2-ylamino)-methyl]-benzamide] | 2 µM | – | 1 µM | – |
| COc1cc(NCc2ccc(/C=C/C(=O)Nc3ccccc3N)cn2)cc(OC)c1OC [Cpd 512, N-(2-Amino-phenyl)-3-{6-[(3,4,5-trimethoxy-phenylamino)-methyl]-pyridin-3-yl}-acrylamide] | – | – | – | IC50 (HCT116 cells; HCT-116, Table 5d): 3 µM; EC50 [2, 7]: 5 µM |
| Nc1ccccc1NC(=O)/C=C/c1ccc(NCc2ccc(F)cc2)nc1 [Cpd 92, N-(2-aminophenyl)-3-[6-(4-fluoro-benzylamino)-pyridin-3-yl]-acrylamide] | – | – | – | IC50 (HCT116 cells; HCT-116, 72 h, Table 5c): 2 µM; EC50 [2, 9]: 3 µM |
| Nc1ccccc1NC(=O)/C=C/c1ccc(NCCCc2ccccc2)nc1 [Cpd 94, N-(2-aminophenyl)-3-[6-(3-phenyl-propylamino)-pyridin-3-yl]-acrylamide] | – | – | – | IC50 (HCT116 cells; HCT-116, 72 h, Table 5c): 2 µM; EC50 [2, 9]: 5 µM |
| CN(C)c1ccc(CNc2ccc(/C=C/C(=O)Nc3ccccc3N)cn2)cc1 [Cpd 96, N-(2-aminophenyl)-3-[6-(4-dimethylamino-benzylamino)-pyridin-3-yl]-acrylamide] | – | – | – | IC50 (HCT116 cells; HCT-116, 72 h, Table 5c): 3 µM; EC50 [2, 9]: 25 µM |

| SMILES | IC50 [1, 3] | IC50 (HCT116 cells; HCT-116, 72 h, Table 5F) | EC50 [2, 4] | further results |
| --- | --- | --- | --- | --- |
| COc1ccc(NCc2ccc(/C=C/C(=O)Nc3ccccc3N)cc2)cc1OC [Cpd 542, N-(2-Amino-phenyl)-3-{4-[(3,4-dimethoxy-phenylamino)-methyl]-phenyl}-acrylamide] | – | – | – | IC50 (HCT116 cells; HCT-116, Table 5d): 5 µM; EC50 [2, 7]: 4 µM |
| COc1cc(CNc2ccc(/C=C/C(=O)Nc3ccccc3N)cn2)cc(OC)c1OC [Cpd 116, N-(2-aminophenyl)-3-[6-(3,4,5-trimethoxy-benzylamino)-pyridin-3-yl]-acrylamide] | – | – | – | IC50 (HCT116 cells; HCT-116, 72 h, Table 5c): 2 µM; EC50 [2, 9]: 5 µM |
| COc1cc(-c2ccc3sc(NCc4ccc(C(=O)Nc5ccccc5N)cc4)nc3c2)cc(OC)c1OC [Cpd 231] | 4 µM | – | 3 µM | – |
| COc1ccc(CNc2ccc(C(=O)Nc3ccccc3N)cc2)cc1OC [Cpd 434, N-(2-Amino-phenyl)-4-(3,4-dimethoxy-benzylamino)-benzamide] | – | 0.6 µM | 2 µM | – |
| Nc1ccccc1NC(=O)/C=C/c1ccc(NCc2ccccc2)nc1 [Cpd 93, N-(2-aminophenyl)-3-(6-benzylamino-pyridin-3-yl)-acrylamide] | – | – | – | IC50 (HCT116 cells; HCT-116, 72 h, Table 5c): 1 µM; EC50 [2, 9]: 5 µM |
| COc1ccc(-c2ccnc(NCc3ccc(C(=O)Nc4ccccc4N)cc3)n2)cc1OC [Cpd 440, N-(2-Amino-phenyl)-4-{[4-(3,4-dimethoxy-phenyl)-pyrimidin-2-ylamino]-methyl}-benzamide] | – | 0.1 µM | 2 µM | – |
| Nc1nc(Nc2ccc(C(=O)Nc3ccccc3N)cc2)nc(NC2Cc3ccccc3C2)n1 [Cpd 204] | – | – | – | IC50 ([1]; Table 5b, read-out: Human HDAC-1 IC50): 4 µM; EC50 ([2]; T-24, Table 5b, read-out: H4Ac (T24) EC50): 5 µM |
| COc1ccc(NCc2ccc(C(=O)Nc3ccccc3N)cc2)cc1 [Cpd 427, N-(2-Amino-phenyl)-4-[(4-methoxy-phenylamino)-methyl]-benzamide] | – | 2 µM | 1 µM | – |
| COc1cc(NCc2ccc(C(=O)Nc3ccccc3N)cc2)cc(OC)c1OC [Cpd 164] | – | – | – | IC50 (HCT116 cells; HCT-116, 72 h, Table 5E): 2 µM; EC50 [2, 8]: 3 µM |
| COc1ccc(NCc2ccc(C(=O)Nc3ccccc3O)cc2)cc1OC [Cpd 572, N-(2-hydroxy-phenyl)-4-[(3,4-Dimethoxy-phenylamino)-methyl]-benzamide] | – | 5 µM | 5 µM | – |
| Nc1ccccc1NC(=O)/C=C/c1ccc(NCc2ccc(OC(F)(F)F)cc2)nc1 [Cpd 99, N-(2-aminophenyl)-3-[6-(4-trifluoromethoxy-benzylamino)-pyridin-3-yl]-acrylamide] | – | – | – | IC50 (HCT116 cells; HCT-116, 72 h, Table 5c): 5 µM; EC50 [2, 9]: 10 µM |
| Nc1ccccc1NC(=O)/C=C/c1cnc(NCc2ccc([N+](=O)[O-])cc2)nc1 [Cpd 113, N-(2-amino-phenyl)-3-[2-(4-nitro-benzylamino)-pyrimidin-5-yl]-acrylamide] | – | – | – | IC50 (HCT116 cells; HCT-116, 72 h, Table 5c): 0.3 µM; EC50 [2, 9]: 5 µM |
| COc1ccc(-c2ccnc(NCc3ccc(C(=O)Nc4ccccc4N)cc3)n2)cn1 [Cpd 578, N-(2-Amino-phenyl)-4-{[4-(6-methoxy-pyridin-3-yl)-pyrimidin-2-ylamino]-methyl}-benzamide] | – | 0.1 µM | 1 µM | – |
| COc1cc(N(C)Cc2ccc(/C=C/C(=O)Nc3ccccc3N)cc2)cc(OC)c1OC [Cpd 108] | – | – | – | IC50 (HCT116 cells; HCT-116, 72 h, Table 5c): 5 µM; EC50 [2, 9]: 5 µM |
| Nc1ccccc1NC(=O)c1ccc(CNc2nc(Cl)cc(N3CCOCC3)n2)cc1 [Cpd 411, N-(2-Amino-phenyl)-4-[(4-chloro-6-morpholin-4-yl-pyrimidin-2-ylamino)-methyl]-benzamide] | 2 µM | – | 1 µM | – |
| COc1cc(CNc2ccc(C(=O)Nc3ccccc3N)cc2)cc(OC)c1OC [Cpd 412, N-(2-Amino-phenyl)-4-(3,4,5trimethoxybenzylamino)-benzamide] | – | 2 µM | 3 µM | – |
